As usually defined, the AC50 is the midpoint of the concentration-response curve, whichever way the signal moves.

Where two headings read alike, the source gives them in different places.

Results on twelve compounds are retold here after patent publication US12129246B1, “Hydroquinazoline derivatives for the treatment of a disease or disorder” (Novartis AG, priority 2023, dated 2024).

One assay concerns the target monkey NPR1 (Macaca fascicularis, UniProt A0A7N9DBT9). In words: Cellular cGMP production assay, monkey NPR1 expressing CHO-K1 cells (CisBio HTRF). Conditions: for Monkey NPR1 Amax (% of ANP): maximum cGMP production as percentage of the maximum cGMP produced with ANP. The assay is classed as cell-based. In outline:
(§1)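 Read-out was HTRF (excitation 317 nm, emission 665 nm), with cGMP quantified as Delta F against a calibrator standard curve. Beforehand, cells were exposed for 30 min at 37 °C to compound (30 μM top, twelve 3-fold steps) in IBMX-containing PBS/BSA buffer, then lysed.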
For orientation: In TR-FRET formats the signal depends on donor and acceptor labels being close together.

Another assay addresses T1, human NPR1 (Homo sapiens, UniProt P16066).
T1 construct: host or cells: CHO-K1
T1 sequence (P16066 33-1061): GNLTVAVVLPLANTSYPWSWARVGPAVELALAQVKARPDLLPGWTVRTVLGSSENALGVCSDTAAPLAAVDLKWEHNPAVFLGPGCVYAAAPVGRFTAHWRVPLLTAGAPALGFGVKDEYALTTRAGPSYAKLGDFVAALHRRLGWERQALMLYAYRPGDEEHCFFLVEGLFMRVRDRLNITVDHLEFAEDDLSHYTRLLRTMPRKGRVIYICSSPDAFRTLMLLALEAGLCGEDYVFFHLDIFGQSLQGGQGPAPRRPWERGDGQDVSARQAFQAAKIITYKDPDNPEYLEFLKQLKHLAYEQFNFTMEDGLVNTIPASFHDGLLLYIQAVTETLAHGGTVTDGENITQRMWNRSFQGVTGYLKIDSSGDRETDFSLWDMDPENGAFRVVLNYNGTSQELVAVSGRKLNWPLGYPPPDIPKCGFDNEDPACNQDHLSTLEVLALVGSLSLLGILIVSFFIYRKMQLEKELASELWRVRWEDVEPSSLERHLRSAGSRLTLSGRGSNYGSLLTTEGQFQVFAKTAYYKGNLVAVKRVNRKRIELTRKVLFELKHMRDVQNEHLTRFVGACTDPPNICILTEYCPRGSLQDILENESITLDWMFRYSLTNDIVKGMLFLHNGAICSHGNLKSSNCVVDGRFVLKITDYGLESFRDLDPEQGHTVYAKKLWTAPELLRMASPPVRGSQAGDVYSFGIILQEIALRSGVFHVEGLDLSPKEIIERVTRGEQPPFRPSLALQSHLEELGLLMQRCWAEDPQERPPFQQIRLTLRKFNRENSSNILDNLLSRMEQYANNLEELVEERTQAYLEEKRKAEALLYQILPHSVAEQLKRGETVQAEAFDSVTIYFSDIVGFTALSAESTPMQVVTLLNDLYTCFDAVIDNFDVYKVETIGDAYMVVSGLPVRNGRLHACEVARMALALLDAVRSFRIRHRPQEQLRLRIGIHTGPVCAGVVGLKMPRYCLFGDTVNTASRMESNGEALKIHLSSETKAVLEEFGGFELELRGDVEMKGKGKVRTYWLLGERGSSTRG
In words: Cellular cGMP production assay, human NPR1 expressing CHO-K1 cells (CisBio HTRF). The assay is classed as cell-based. Conditions: for AC50: cGMP production, 30 min at 37° C., 12-point dose-response from 30 μM; for Human NPR1 Amax (% of ANP): maximum cGMP production as percentage of the maximum cGMP produced with ANP. The method in brief:
as §1

Setting [1] is: cGMP production, monkey NPR1 CHO-K1 cells, 30 min at 37° C., 12-point dose-response from 30 μM, read-out: Monkey NPR1 AC50.

Chain of monkey NPR1 (A0A7N9DBT9 entry or part of it): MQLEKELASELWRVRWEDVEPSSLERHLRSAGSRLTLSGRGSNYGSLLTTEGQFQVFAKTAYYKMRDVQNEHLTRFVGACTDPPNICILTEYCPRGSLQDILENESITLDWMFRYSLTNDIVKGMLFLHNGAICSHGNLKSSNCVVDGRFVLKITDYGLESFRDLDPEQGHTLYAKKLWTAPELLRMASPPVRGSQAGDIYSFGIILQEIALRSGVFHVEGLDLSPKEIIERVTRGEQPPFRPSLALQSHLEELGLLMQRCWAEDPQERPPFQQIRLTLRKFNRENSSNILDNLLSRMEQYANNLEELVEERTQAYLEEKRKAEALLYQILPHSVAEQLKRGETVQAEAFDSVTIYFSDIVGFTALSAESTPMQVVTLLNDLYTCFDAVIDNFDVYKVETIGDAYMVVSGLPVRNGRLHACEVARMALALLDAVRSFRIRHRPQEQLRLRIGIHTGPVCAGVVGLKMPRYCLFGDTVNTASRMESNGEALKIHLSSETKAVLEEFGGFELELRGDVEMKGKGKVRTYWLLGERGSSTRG

As to `CC[C@@H](N(C)c1nc2c(c(N[C@@H](CN3C4CCCC3CCC4)c3cnn(C)c3C)n1)C[C@H](c1cccc(F)c1)CC2)C12CC(C(=O)O)(C1)C2` [Compound 89, 3-((R)-1-(((R)-4-(((R)-2-((1S,5S)-9-azabicyclo[3.3.1]nonan-9-yl)-1-(1,5-dimethyl-1H-pyrazol-4-yl)ethyl)amino)-6-(3-fluorophenyl)-5,6,7,8-tetrahydroquinazolin-2-yl)(methyl)amino)propyl)bicyclo[1.1.1]pentane-1-carboxylic acid], the AC50 was 0.268 µM at monkey NPR1 and 0.309 µM at human NPR1. In addition, at monkey NPR1 (monkey NPR1 CHO-K1 cells), the “Monkey NPR1 Amax (% of ANP)” value is on record as 103.084 % of ANP. Further, on human NPR1, the “Human NPR1 Amax (% of ANP)” value is given as 98.816 % of ANP.
As to `CC[C@@H](Nc1nc2c(c(N[C@@H](CN3CCCC[C@H]3C)c3cnn(C)c3)n1)C[C@H](c1ccccc1)CC2)[C@H]1CC[C@H](C(=O)O)CC1` [Compound 90, (1R,4r)-4-((R)-1-(((R)-4-(((R)-1-(1-methyl-1H-pyrazol-4-yl)-2-((R)-2-methylpiperidin-1-yl)ethyl)amino)-6-phenyl-5,6,7,8-tetrahydroquinazolin-2-yl)amino)propyl)cyclohexane-1-carboxylic acid], the AC50 at monkey NPR1 (setting [1]) was found to be 0.224 µM. At monkey NPR1 (monkey NPR1 CHO-K1 cells), the “Monkey NPR1 Amax (% of ANP)” value was 106.347 % of ANP. Further, on human NPR1, half-maximal activity (AC50) was put at 0.313 µM and the “Human NPR1 Amax (% of ANP)” value is given as 103.308 % of ANP.
On to `CC[C@H]([C@H]1CC[C@H](C(=O)O)CC1)N(C)c1nc2c(c(N[C@@H](CN3CCCCC3)c3cnn(CC)c3)n1)C[C@H](c1cccc(F)c1)CC2` [Compound 91, (1R,4r)-4-((R)-1-(((R)-4-(((R)-1-(1-ethyl-1H-pyrazol-4-yl)-2-(piperidin-1-yl)ethyl)amino)-6-(3-fluorophenyl)-5,6,7,8-tetrahydroquinazolin-2-yl)(methyl)amino)propyl)cyclohexane-1-carboxylic acid], for which the AC50 at monkey NPR1 (setting [1]) came to 0.184 µM; on human NPR1, 0.315 µM. Besides, the “Monkey NPR1 Amax (% of ANP)” value at monkey NPR1 (monkey NPR1 CHO-K1 cells) was 102.129 % of ANP. For the same compound, the “Human NPR1 Amax (% of ANP)” value on human NPR1 was 98.135 % of ANP.
`CC[C@H]([C@H]1CC[C@H](C(=O)O)CC1)N(C)c1nc2c(c(N[C@@H](CN3C4CCCC3CCC4)c3cnn(CC)c3)n1)C[C@H](c1ccccc1)CC2` [Compound 92, (1R,4r)-4-((R)-1-(((R)-4-(((R)-2-((1S,5S)-9-azabicyclo[3.3.1]nonan-9-yl)-1-(1-ethyl-1H-pyrazol-4-yl)ethyl)amino)-6-phenyl-5,6,7,8-tetrahydroquinazolin-2-yl)(methyl)amino)propyl)cyclohexane-1-carboxylic acid] gave an AC50 at monkey NPR1 of 0.249 µM. In addition, the “Monkey NPR1 Amax (% of ANP)” value on monkey NPR1 (monkey NPR1 CHO-K1 cells) is 99.824 % of ANP. Moreover, at human NPR1, the AC50 was determined as 0.317 µM and the “Human NPR1 Amax (% of ANP)” value is 99.678 % of ANP.
For the compound `CC[C@H]([C@H]1CC[C@H](C(=O)O)CC1)N(C)c1nc2c(c(N[C@@H](CN3CCC[C@H](CO)C3)c3cnn(C)c3)n1)C[C@H](c1ccccc1)CC2` [Compound 93, (1R,4r)-4-((R)-1-(((R)-4-(((R)-2-((S)-3-(hydroxymethyl)piperidin-1-yl)-1-(1-methyl-1H-pyrazol-4-yl)ethyl)amino)-6-phenyl-5,6,7,8-tetrahydroquinazolin-2-yl)(methyl)amino)propyl)cyclohexane-1-carboxylic acid], the AC50 on monkey NPR1 (setting [1]) was 0.261 µM. Also, the “Monkey NPR1 Amax (% of ANP)” value on monkey NPR1 (monkey NPR1 CHO-K1 cells) is listed as 91.105 % of ANP. Also, on human NPR1, half-maximal activity (AC50) was put at 0.318 µM and the “Human NPR1 Amax (% of ANP)” value was 92.058 % of ANP.
The corresponding values for `CC[C@@H](Nc1nc2c(c(N[C@@H](CN3CCCCCC3)c3cnn(CC)c3)n1)C[C@H](c1ccccc1)CC2)[C@H]1CC[C@H](C(=O)O)CC1` [Compound 94, (1R,4r)-4-((R)-1-(((R)-4-(((R)-2-(azepan-1-yl)-1-(1-ethyl-1H-pyrazol-4-yl)ethyl)amino)-6-phenyl-5,6,7,8-tetrahydroquinazolin-2-yl)amino)propyl)cyclohexane-1-carboxylic acid] are 0.226 µM, 105.567 % of ANP, 0.326 µM and 101.620 % of ANP.
With `CC[C@@H](Nc1nc2c(c(N[C@@H](CN3CCCC(C)(C)C3)c3cnn(C)c3)n1)C[C@H](c1ccccc1)CC2)[C@H]1CC[C@H](C(=O)O)CC1` [Compound 95, (1R,4r)-4-((R)-1-(((R)-4-(((R)-2-(3,3-dimethylpiperidin-1-yl)-1-(1-methyl-1H-pyrazol-4-yl)ethyl)amino)-6-phenyl-5,6,7,8-tetrahydroquinazolin-2-yl)amino)propyl)cyclohexane-1-carboxylic acid], the AC50 was found to be 0.173 µM at monkey NPR1 (setting [1]) and 0.334 µM on human NPR1. On monkey NPR1 (monkey NPR1 CHO-K1 cells), the “Monkey NPR1 Amax (% of ANP)” value is given as 94.323 % of ANP. Moreover, at human NPR1, the “Human NPR1 Amax (% of ANP)” value is recorded as 97.121 % of ANP.
Consider `CC[C@@H]1CCCCN1C[C@H](Nc1nc(N[C@H](CC)[C@H]2CC[C@H](C(=O)O)CC2)nc2c1C[C@H](c1ccccc1)CC2)c1cnn(C)c1` [Compound 96, (1R,4r)-4-((R)-1-(((R)-4-(((R)-2-((R)-2-ethylpiperidin-1-yl)-1-(1-methyl-1H-pyrazol-4-yl)ethyl)amino)-6-phenyl-5,6,7,8-tetrahydroquinazolin-2-yl)amino)propyl)cyclohexane-1-carboxylic acid], for which the half-maximal activity concentration (AC50) is 0.106 µM on monkey NPR1 (setting [1]) and 0.336 µM at human NPR1. On monkey NPR1 (monkey NPR1 CHO-K1 cells), the “Monkey NPR1 Amax (% of ANP)” value was 101.912 % of ANP. Moreover, the “Human NPR1 Amax (% of ANP)” value at human NPR1 is 103.654 % of ANP.
Take `CC[C@H]([C@H]1CC[C@H](C(=O)O)CC1)N(C)c1nc2c(c(N[C@@H](CN3CCCCC3)c3cnn(C4CC4)c3)n1)C[C@H](c1ccccc1)CC2` [Compound 97, (1R,4r)-4-((R)-1-(((R)-4-(((R)-1-(1-cyclopropyl-1H-pyrazol-4-yl)-2-(piperidin-1-yl)ethyl)amino)-6-phenyl-5,6,7,8-tetrahydroquinazolin-2-yl)(methyl)amino)propyl)cyclohexane-1-carboxylic acid]: the AC50 on monkey NPR1 (setting [1]) stood at 0.192 µM. Further, on monkey NPR1 (monkey NPR1 CHO-K1 cells), the “Monkey NPR1 Amax (% of ANP)” value is 96.148 % of ANP. Besides, on human NPR1, the AC50 worked out at 0.338 µM and the “Human NPR1 Amax (% of ANP)” value is 107.286 % of ANP.
As for `CC[C@H]([C@H]1CC[C@H](C(=O)O)CC1)N(C)c1nc2c(c(N[C@@H](CN3C4CC5CC(C4)CC3C5)c3cnn(C)c3)n1)C[C@H](c1ccccc1)CC2` [Compound 98, (1R,4r)-4-((R)-1-(((R)-4-(((R)-2-((1R,3R,5R,7R)-2-azaadamantan-2-yl)-1-(1-methyl-1H-pyrazol-4-yl)ethyl)amino)-6-phenyl-5,6,7,8-tetrahydroquinazolin-2-yl)(methyl)amino)propyl)cyclohexane-1-carboxylic acid], at monkey NPR1 (setting [1]), the AC50 is 0.179 µM. The “Monkey NPR1 Amax (% of ANP)” value at monkey NPR1 (monkey NPR1 CHO-K1 cells) is 105.533 % of ANP. In addition, at human NPR1, the AC50 came out at 0.346 µM and the “Human NPR1 Amax (% of ANP)” value is 100.756 % of ANP.
Take `CC[C@@H](Nc1nc2c(c(N[C@@H](CN3CCCC3)c3ccccc3)n1)CN(c1cccc(F)c1)CC2)[C@H]1CC[C@H](C(=O)O)CC1` [Compound 99, (1R,4r)-4-((R)-1-((6-(3-fluorophenyl)-4-(((R)-1-phenyl-2-(pyrrolidin-1-yl)ethyl)amino)-5,6,7,8-tetrahydropyrido[4,3-d]pyrimidin-2-yl)amino)propyl)cyclohexane-1-carboxylic acid]: at monkey NPR1 (setting [1]), the AC50 stood at 0.256 µM. Besides, the “Monkey NPR1 Amax (% of ANP)” value on monkey NPR1 (monkey NPR1 CHO-K1 cells) is 94.886 % of ANP. In addition, at human NPR1, the AC50 was determined as 0.351 µM and the “Human NPR1 Amax (% of ANP)” value is 102.315 % of ANP.
As for `CC[C@@H](Nc1nc2c(c(N[C@@H](CN3CCCCC3)c3cnn(C(C)C)c3)n1)C[C@H](c1ccccc1)CC2)[C@H]1CC[C@H](C(=O)O)CC1` [Compound 100, (1R,4r)-4-((R)-1-(((R)-4-(((R)-1-(1-isopropyl-1H-pyrazol-4-yl)-2-(piperidin-1-yl)ethyl)amino)-6-phenyl-5,6,7,8-tetrahydroquinazolin-2-yl)amino)propyl)cyclohexane-1-carboxylic acid], the concentration at half-maximal activity (AC50) at monkey NPR1 (setting [1]) came out at 0.161 µM. For the same compound, at monkey NPR1 (monkey NPR1 CHO-K1 cells), the “Monkey NPR1 Amax (% of ANP)” value is 105.588 % of ANP. Moreover, on human NPR1, the AC50 was found to be 0.354 µM and the “Human NPR1 Amax (% of ANP)” value was 92.848 % of ANP.
